ChEMBL document CHEMBL4699558, “Lead optimization of 8-(methylamino)-2-oxo-1,2-dihydroquinolines as bacterial type II topoisomerase inhibitors” (Bioorg Med Chem, 2020)
≈ marks a conversion by molar mass, not a printed value.

Legend:
DNA gyrase = DNA gyrase (Escherichia coli, UniProt P0AES4+P0AES6); test: Inhibition of Escherichia coli DNA gyrase by measuring supercoiling activity incubated for 60 mins by fluorescence based assay; assay type: protein-complex assay
[1] = Inhibition of Escherichia coli topoisomerase IV by measuring relaxation activity incubated for 30 mins by fluorescence based assay
Escherichia coli [2] = test: Antibacterial activity against Escherichia coli ATCC 25922 in presence of PAbetaN by CLSI method; assay type: functional
Escherichia coli [3] = test: Antibacterial activity against Escherichia coli ATCC 25922 by CLSI method; assay type: functional
Staphylococcus aureus [4] = test: Antibacterial activity against Staphylococcus aureus ATCC 29213 by CLSI method; assay type: functional
Enterococcus faecium [5] = test: Antibacterial activity against vancomycin-resistant Enterococcus faecium ATCC 51559 by CLSI method; assay type: functional
Enterococcus faecalis [6] = test: Antibacterial activity against vancomycin-resistant Enterococcus faecalis ATCC 51575 by CLSI method; assay type: functional
Staphylococcus aureus [7] = test: Antibacterial activity against community-acquired Methicillin -resistant Staphylococcus aureus ATCC BAA-1556 by CLSI method; assay type: functional
Streptococcus pneumoniae [8] = test: Antibacterial activity against Streptococcus pneumoniae ATCC 49619 by CLSI method; assay type: functional
Haemophilus influenzae = test: Antibacterial activity against Haemophilus influenzae ATCC 43095 by CLSI method; assay type: functional
Enterococcus faecium [9] = test: Antibacterial activity against Enterococcus faecium ATCC 35667 by CLSI method; assay type: functional
Enterococcus faecalis [10] = test: Antibacterial activity against Enterococcus faecalis ATCC 29212 by CLSI method; assay type: functional
Staphylococcus aureus [11] = test: Antibacterial activity against hospital-acquired Methicillin -resistant Staphylococcus aureus ATCC BAA-811 by CLSI method; assay type: functional
Streptococcus anginosus = test: Antibacterial activity against Streptococcus anginosus ATCC 33397 by CLSI method; assay type: functional
[12] = biological target: DNA topoisomerase 2-alpha (Homo sapiens, UniProt P11388); test: Inhibition of human topoisomerase 2alpha; assay type: ADME
DNA topoisomerase 2-alpha, sequence (P11388 whole entry): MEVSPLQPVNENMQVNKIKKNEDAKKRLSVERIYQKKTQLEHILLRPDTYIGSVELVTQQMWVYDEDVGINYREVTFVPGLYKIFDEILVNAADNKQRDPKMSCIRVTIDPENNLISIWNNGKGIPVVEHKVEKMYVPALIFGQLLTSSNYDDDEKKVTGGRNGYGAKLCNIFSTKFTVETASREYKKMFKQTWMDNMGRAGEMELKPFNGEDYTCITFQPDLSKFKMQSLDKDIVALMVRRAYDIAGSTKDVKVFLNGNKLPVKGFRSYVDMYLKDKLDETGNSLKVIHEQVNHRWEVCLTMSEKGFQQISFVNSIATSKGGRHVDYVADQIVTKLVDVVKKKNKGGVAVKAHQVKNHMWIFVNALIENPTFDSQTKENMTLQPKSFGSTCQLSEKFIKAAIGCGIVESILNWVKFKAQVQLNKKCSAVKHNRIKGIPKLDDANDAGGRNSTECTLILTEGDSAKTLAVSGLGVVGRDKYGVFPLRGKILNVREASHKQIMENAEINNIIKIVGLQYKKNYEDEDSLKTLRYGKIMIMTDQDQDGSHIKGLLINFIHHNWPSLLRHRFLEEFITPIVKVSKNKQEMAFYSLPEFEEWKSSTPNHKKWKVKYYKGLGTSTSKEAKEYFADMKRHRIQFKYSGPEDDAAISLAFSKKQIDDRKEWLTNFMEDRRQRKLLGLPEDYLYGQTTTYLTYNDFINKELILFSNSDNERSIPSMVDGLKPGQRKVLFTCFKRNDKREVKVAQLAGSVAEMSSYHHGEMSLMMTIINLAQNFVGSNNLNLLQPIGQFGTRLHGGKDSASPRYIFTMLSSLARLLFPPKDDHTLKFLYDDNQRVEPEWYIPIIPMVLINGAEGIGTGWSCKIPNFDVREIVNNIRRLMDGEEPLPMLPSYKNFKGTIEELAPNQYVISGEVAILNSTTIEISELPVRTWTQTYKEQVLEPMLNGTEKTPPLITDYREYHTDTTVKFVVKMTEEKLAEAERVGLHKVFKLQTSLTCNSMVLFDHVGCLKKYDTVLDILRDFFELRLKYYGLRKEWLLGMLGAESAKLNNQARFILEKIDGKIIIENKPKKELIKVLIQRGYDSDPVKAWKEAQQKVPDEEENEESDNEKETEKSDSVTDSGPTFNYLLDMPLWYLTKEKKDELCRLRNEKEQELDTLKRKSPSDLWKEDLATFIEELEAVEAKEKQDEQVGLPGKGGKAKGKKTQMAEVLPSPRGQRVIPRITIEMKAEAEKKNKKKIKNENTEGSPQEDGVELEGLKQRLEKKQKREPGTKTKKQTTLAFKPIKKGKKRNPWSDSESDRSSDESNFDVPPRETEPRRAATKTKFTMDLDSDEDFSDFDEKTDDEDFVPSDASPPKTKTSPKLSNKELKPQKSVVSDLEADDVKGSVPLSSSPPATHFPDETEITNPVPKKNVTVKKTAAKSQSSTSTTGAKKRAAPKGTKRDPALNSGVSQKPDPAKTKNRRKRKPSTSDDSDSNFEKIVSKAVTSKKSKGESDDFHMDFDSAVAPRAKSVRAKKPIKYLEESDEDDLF

[13] = Cytotoxicity against human HepG2 cells assessed as reduction in cell viability at 10 uM incubated for 48 hrs by CCK-8 assay
[14] = biological target: Voltage-gated inwardly rectifying potassium channel KCNH2 (Homo sapiens, UniProt Q12809); test: Inhibition of human ERG expressed in CHO cells by Q-patch clamp assay
Voltage-gated inwardly rectifying potassium channel KCNH2, sequence (Q12809 whole entry): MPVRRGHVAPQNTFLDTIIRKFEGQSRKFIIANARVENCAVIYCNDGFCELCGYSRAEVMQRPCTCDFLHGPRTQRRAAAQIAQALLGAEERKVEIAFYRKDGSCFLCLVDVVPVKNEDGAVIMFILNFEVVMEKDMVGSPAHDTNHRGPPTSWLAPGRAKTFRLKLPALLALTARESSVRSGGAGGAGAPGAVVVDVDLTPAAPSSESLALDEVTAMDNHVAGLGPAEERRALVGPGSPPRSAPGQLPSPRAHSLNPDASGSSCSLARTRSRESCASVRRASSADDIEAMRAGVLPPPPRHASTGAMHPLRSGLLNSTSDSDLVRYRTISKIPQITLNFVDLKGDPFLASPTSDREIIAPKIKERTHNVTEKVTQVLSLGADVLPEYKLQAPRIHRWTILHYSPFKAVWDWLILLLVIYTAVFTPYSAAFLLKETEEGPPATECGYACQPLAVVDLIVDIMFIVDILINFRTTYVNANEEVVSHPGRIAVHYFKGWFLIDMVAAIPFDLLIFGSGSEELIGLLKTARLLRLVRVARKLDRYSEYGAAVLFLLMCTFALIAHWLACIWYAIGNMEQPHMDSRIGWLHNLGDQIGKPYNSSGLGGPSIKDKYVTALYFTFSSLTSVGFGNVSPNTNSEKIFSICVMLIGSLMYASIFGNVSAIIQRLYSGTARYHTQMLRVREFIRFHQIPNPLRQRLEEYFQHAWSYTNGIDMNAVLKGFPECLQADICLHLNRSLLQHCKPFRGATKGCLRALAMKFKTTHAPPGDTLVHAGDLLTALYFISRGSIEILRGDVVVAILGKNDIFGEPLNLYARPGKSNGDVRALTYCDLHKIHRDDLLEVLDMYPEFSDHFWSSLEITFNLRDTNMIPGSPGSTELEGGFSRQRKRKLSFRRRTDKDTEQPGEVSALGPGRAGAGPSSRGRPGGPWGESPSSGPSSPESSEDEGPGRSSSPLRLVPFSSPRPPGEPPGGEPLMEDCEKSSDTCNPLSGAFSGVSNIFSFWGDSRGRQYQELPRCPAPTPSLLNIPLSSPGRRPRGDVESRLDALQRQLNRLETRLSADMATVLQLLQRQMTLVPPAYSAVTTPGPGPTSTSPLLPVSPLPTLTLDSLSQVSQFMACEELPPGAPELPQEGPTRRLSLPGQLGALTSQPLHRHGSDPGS

[15] = Cytotoxicity against human HepG2 cells assessed as reduction in cell viability at 50 uM incubated for 48 hrs by CCK-8 assay
Streptococcus pneumoniae [16] = test: Antibacterial activity against genotype penicillin-resistant Streptococcus pneumoniae by CLSI method; assay type: functional
[17] = tested on: Peptostreptococcus anaerobius; test: Antibacterial activity against Peptostreptococcus anaerobius ATCC 27337 by CLSI method; assay type: functional
Porphyromonas gingivalis = test: Antibacterial activity against Porphyromonas gingivalis JCM8525 by CLSI method; assay type: functional
Bacteroides fragilis = test: Antibacterial activity against Bacteroides fragilis ATCC 25285 by CLSI method; assay type: functional
Fusobacterium nucleatum = test: Antibacterial activity against Fusobacterium nucleatum JCM8532 by CLSI method; assay type: functional
Enterococcus = test: Antibacterial activity against Vancomycin-resistant Enterococcus by CLSI method; assay type: functional
Staphylococcus aureus [18] = test: Antibacterial activity against Methicillin-resistant Staphylococcus aureus by CLSI method; assay type: functional
[19] = tested on: Prevotella melaninogenica; test: Antibacterial activity against Prevotella melaninogenica JCM6325 by CLSI method; assay type: functional
Clostridioides difficile = test: Antibacterial activity against Clostridioides difficile ATCC 700057 by CLSI method; assay type: functional

CNc1cc(F)cc2cc(C(=O)Nc3ccc(C(=O)O)cc3CN(C)C3CCCCC3)c(=O)[nH]c12.Cl
IC50 (DNA gyrase): 0.53 nM
IC50 [1]: 47.4 nM
MIC (Escherichia coli [2]): ≤ 0.03 µg/mL
MIC (Escherichia coli [3]): 8 µg/mL
MIC (Staphylococcus aureus [4]): 2 µg/mL

CNc1cc(F)cc2cc(C(=O)Nc3ccc(C(=O)O)cc3CN3CCCCC3)c(=O)[nH]c12
IC50 (DNA gyrase): 0.31 nM
MIC (Enterococcus faecium [5]): 0.015 µg/mL (≈ 0.0332 µM)
MIC (Enterococcus faecalis [6]): 0.015 µg/mL (≈ 0.0332 µM)
MIC (Staphylococcus aureus [7]): 4 µg/mL (≈ 8.84 µM)
MIC (Streptococcus pneumoniae [8]): 0.03 µg/mL (≈ 0.0663 µM)
IC50 [1]: 15.3 nM
MIC (Haemophilus influenzae): 0.06 µg/mL (≈ 0.133 µM)
MIC (Enterococcus faecium [9]): 0.03 µg/mL (≈ 0.0663 µM)
MIC (Enterococcus faecalis [10]): 0.015 µg/mL (≈ 0.0332 µM)
MIC (Escherichia coli [2]): ≤ 0.03 µg/mL
MIC (Escherichia coli [3]): 8 µg/mL (≈ 17.7 µM)
MIC (Staphylococcus aureus [11]): 4 µg/mL (≈ 8.84 µM)
MIC (Streptococcus anginosus): 0.03 µg/mL (≈ 0.0663 µM)
MIC (Staphylococcus aureus [4]): 4 µg/mL (≈ 8.84 µM)

CNc1cc(F)cc2c(O)c(C(=O)Nc3ccc(C(=O)NS(=O)(=O)N(C)C)cc3)c(=O)[nH]c12
IC50 (DNA gyrase): 2.66 nM
MIC (Enterococcus faecium [5]): 0.03 µg/mL (≈ 0.0628 µM)
MIC (Enterococcus faecalis [6]): 0.015 µg/mL (≈ 0.0314 µM)
IC50 [12]: 20900 nM
MIC (Staphylococcus aureus [7]): 1 µg/mL (≈ 2.09 µM)
MIC (Streptococcus pneumoniae [8]): 0.06 µg/mL (≈ 0.126 µM)
cytotoxicity at 48 h, 10 µM ([13]; HepG2 cells): 3.61%
IC50 [14]: > 30000 nM
IC50 [1]: 127 nM
cytotoxicity at 48 h, 50 µM ([15]; HepG2 cells): 38%
MIC (Haemophilus influenzae): ≤ 0.015 µg/mL
MIC (Enterococcus faecium [9]): 0.03 µg/mL (≈ 0.0628 µM)
MIC (Enterococcus faecalis [10]): 0.015 µg/mL (≈ 0.0314 µM)
MIC (Escherichia coli [2]): ≤ 0.015 µg/mL
MIC (Escherichia coli [3]): 1 µg/mL (≈ 2.09 µM)
MIC (Staphylococcus aureus [11]): 1 µg/mL (≈ 2.09 µM)
MIC (Streptococcus anginosus): 0.12 µg/mL (≈ 0.251 µM)

CC1(C)S[C@@H]2[C@H](NC(=O)Cc3ccccc3)C(=O)N2[C@H]1C(=O)O [PENICILLIN G]
MIC50 (Streptococcus pneumoniae [16]): 2 µg/mL (≈ 5.98 µM)
MIC90 (Streptococcus pneumoniae [16]): 4 µg/mL (≈ 12 µM)

CNc1cc(F)cc2cc(C(=O)Nc3ccc(C(=O)NCCN4CCOCC4)cc3)c(=O)[nH]c12
IC50 (DNA gyrase): 7.29 nM
IC50 [1]: 1300 nM
MIC (Escherichia coli [2]): 0.06 µg/mL
MIC (Escherichia coli [3]): 4 µg/mL (≈ 8.56 µM)
MIC (Staphylococcus aureus [4]): > 16 µg/mL

CCCCCN(CCCCC)Cc1cc(C(=O)O)ccc1NC(=O)c1cc2cc(F)cc(NC)c2[nH]c1=O
MIC [17]: 0.12 µg/mL (≈ 0.229 µM)
IC50 (DNA gyrase): 0.8 nM
MIC (Enterococcus faecalis [6]): 0.015 µg/mL (≈ 0.0286 µM)
IC50 [12]: > 100000 nM
MIC (Porphyromonas gingivalis): 0.12 µg/mL (≈ 0.229 µM)
MIC (Staphylococcus aureus [7]): 0.5 µg/mL (≈ 0.953 µM)
MIC (Streptococcus pneumoniae [8]): 0.015 µg/mL (≈ 0.0286 µM)
cytotoxicity at 48 h, 10 µM ([13]; hepg2): 8.11%
cytotoxicity at 48 h, 50 µM ([15]; hepg2): 46.7%
MIC (Haemophilus influenzae): 0.25 µg/mL (≈ 0.477 µM)
MIC (Enterococcus faecium [9]): 0.06 µg/mL (≈ 0.114 µM)
MIC (Bacteroides fragilis): > 32 µg/mL
MIC (Enterococcus faecalis [10]): 0.015 µg/mL (≈ 0.0286 µM)
MIC (Escherichia coli [2]): ≤ 0.03 µg/mL
MIC (Staphylococcus aureus [11]): 0.5 µg/mL (≈ 0.953 µM)
MIC (Staphylococcus aureus [4]): 0.06 µg/mL (≈ 0.114 µM)
MIC (Fusobacterium nucleatum): 1 µg/mL (≈ 1.91 µM)

C[C@H]1COc2c(N3CCN(C)CC3)c(F)cc3c(=O)c(C(=O)O)cn1c23.C[C@H]1COc2c(N3CCN(C)CC3)c(F)cc3c(=O)c(C(=O)O)cn1c23.O [LEVOFLOXACIN]
MIC50 (Enterococcus): 8 µg/mL
MIC90 (Enterococcus): 128 µg/mL
MIC50 (Staphylococcus aureus [18]): 16 µg/mL
MIC90 (Staphylococcus aureus [18]): > 128 µg/mL
MIC50 (Streptococcus pneumoniae [16]): 2 µg/mL
MIC90 (Streptococcus pneumoniae [16]): 2 µg/mL

CNc1cc(F)cc2c(O)c(C(=O)Nc3ccc(C(=O)O)cc3CN3CCCCC3)c(=O)[nH]c12.O=C(O)C(F)(F)F
IC50 (DNA gyrase): 7.53 nM
MIC (Streptococcus pneumoniae [8]): 0.5 µg/mL
IC50 [1]: 4930 nM
MIC (Haemophilus influenzae): 0.12 µg/mL
MIC (Enterococcus faecium [9]): 1 µg/mL
MIC (Enterococcus faecalis [10]): 0.12 µg/mL
MIC (Escherichia coli [2]): ≤ 0.015 µg/mL
MIC (Escherichia coli [3]): 8 µg/mL
MIC (Streptococcus anginosus): 0.5 µg/mL

CC(=O)NC[C@H]1CN(c2ccc(N3CCOCC3)c(F)c2)C(=O)O1 [LINEZOLID]
MIC50 (Enterococcus): 4 µg/mL (≈ 11.9 µM)
MIC90 (Enterococcus): 4 µg/mL (≈ 11.9 µM)
MIC50 (Staphylococcus aureus [18]): 4 µg/mL (≈ 11.9 µM)
MIC90 (Staphylococcus aureus [18]): 4 µg/mL (≈ 11.9 µM)

CO/N=C(\C(=O)N[C@@H]1C(=O)N2C(C(=O)O)=C(CSc3nc(=O)c(O)nn3C)CS[C@H]12)c1csc(N)n1 [CEFTRIAXONE]
MIC [17]: 0.5 µg/mL (≈ 0.902 µM)
MIC (Porphyromonas gingivalis): ≤ 0.12 µg/mL
MIC [19]: 1 µg/mL (≈ 1.8 µM)
MIC (Bacteroides fragilis): 64 µg/mL (≈ 115 µM)
MIC50 (Streptococcus pneumoniae [16]): 1 µg/mL (≈ 1.8 µM)
MIC90 (Streptococcus pneumoniae [16]): 4 µg/mL (≈ 7.21 µM)
MIC (Fusobacterium nucleatum): 0.5 µg/mL (≈ 0.902 µM)

CCC[C@@H]1C[C@@H](C(=O)N[C@@H]([C@H]2O[C@H](SC)[C@H](O)[C@@H](O)[C@H]2O)[C@H](C)Cl)N(C)C1 [CLINDAMYCIN]
MIC [17]: 0.25 µg/mL (≈ 0.588 µM)
MIC (Clostridioides difficile): 8 µg/mL (≈ 18.8 µM)
MIC (Porphyromonas gingivalis): ≤ 0.015 µg/mL
MIC [19]: 0.03 µg/mL (≈ 0.0706 µM)
MIC (Bacteroides fragilis): 1 µg/mL (≈ 2.35 µM)
